# According to ChEMBL document CHEMBL2062445, “Synthesis and nicotinic receptor activity of chemical space analogues of N-(3R)-1-azabicyclo[2.2.2]oct-3-yl-4-chlorobenzamide (PNU-282,987) and 1,4-diazabicyclo[3.2.2]nonane-4-carboxylic acid 4-bromophenyl ester (SSR180711)” (J Med Chem, 2012):
# Activity calls are given as the source filed them. No cut-off for these calls is given here.
# What was measured:
# [1] = target: T1, Neuronal acetylcholine receptor subunit alpha-7 (Homo sapiens, UniProt P36544); assay: Antagonist activity at human alpha7 nAChR expressed in Xenopus oocyte assessed as inhibition of ACh-induced current at 10 uM after 30 secs by electrophysiological assay; type: functional
# T1 sequence (P36544 whole entry): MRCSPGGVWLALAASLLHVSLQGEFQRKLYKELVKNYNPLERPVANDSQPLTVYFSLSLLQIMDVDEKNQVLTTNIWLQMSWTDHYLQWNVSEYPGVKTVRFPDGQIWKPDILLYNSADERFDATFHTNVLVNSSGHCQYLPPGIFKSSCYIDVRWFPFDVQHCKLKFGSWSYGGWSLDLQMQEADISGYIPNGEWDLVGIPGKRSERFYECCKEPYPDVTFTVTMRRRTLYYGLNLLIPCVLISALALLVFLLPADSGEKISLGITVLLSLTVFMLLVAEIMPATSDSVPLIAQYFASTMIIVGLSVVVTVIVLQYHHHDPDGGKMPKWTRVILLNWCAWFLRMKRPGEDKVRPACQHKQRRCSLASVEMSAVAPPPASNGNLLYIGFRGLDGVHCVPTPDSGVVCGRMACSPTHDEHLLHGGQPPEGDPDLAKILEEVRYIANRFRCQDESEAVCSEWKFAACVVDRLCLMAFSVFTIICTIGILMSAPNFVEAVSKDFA
# [2] = target: T1, Neuronal acetylcholine receptor subunit alpha-7; assay: Agonist activity at human alpha7 nAChR expressed in Xenopus oocyte assessed as stimulation of ACh-induced current at 10 uM after 30 secs by electrophysiological assay; type: functional
# [3] = target: T2, Neuronal acetylcholine receptor; alpha3/beta2 (Homo sapiens) (UniProt P17787+P32297); assay: Negative allosteric modulation at human recombinant alpha3beta 2 nAChR expressed in Xenopus oocyte assessed as inhibition of ACh-induced current at 100 uM after 30 secs by electrophysiological assay
# [4] = target: T2, Neuronal acetylcholine receptor; alpha3/beta2 (Homo sapiens); assay: Positive allosteric modulation at human recombinant alpha3beta 2 nAChR expressed in Xenopus oocyte assessed as stimulation of ACh-induced current at 10 uM after 30 secs by electrophysiological assay
# [5] = target: T1, Neuronal acetylcholine receptor subunit alpha-7; assay: Antagonist activity at human alpha7 nAChR expressed in Xenopus oocyte assessed as inhibition of ACh-induced current after 30 secs by electrophysiological assay; type: functional
# [6] = target: T1, Neuronal acetylcholine receptor subunit alpha-7; assay: Partial agonist activity at human alpha7 nAChR expressed in Xenopus oocyte assessed as stimulation of ACh-induced current after 30 secs by electrophysiological assay; type: functional
# [7] = target: T2, Neuronal acetylcholine receptor; alpha3/beta2 (Homo sapiens); assay: Positive allosteric modulation at human recombinant alpha3beta 2 nAChR expressed in Xenopus oocyte assessed as inhibition of ACh-induced current at 100 uM after 30 secs by electrophysiological assay
Structure (SMILES),inhibition [1],Activity [2],also measured
O=C(NCC12CCCN1CCC2)c1ccccc1Cl,35%,,
O=C(c1ccc(Cl)cc1)N1CCCN2CCC[C@H]2C1,57%,,
CN1CC2CCC1C(CNC(=O)c1ccc(Cl)cc1)C2 (racemic; form 2),61%,inactive,
O=C(NCC12CCCN1CCC2)c1ccc(Br)cc1,9%,,
O=C(NCC1CC2CCN1CC2)Oc1ccc(Br)cc1 (racemic),80%,,
O=C(NCC12CCCN1CCC2)c1cccc(Cl)c1,32%,,
CN1CC2CCC1C(CNC(=O)c1ccc(F)cc1)C2 (racemic; form 2),55%,inactive,
O=C(NCC1=CC2CCN1CC2)c1ccc2c(c1)OCCO2,50%,inactive,
CC(C)N1C[C@H]2C[C@@H]1CN2C(=O)c1ccc(Cl)cc1,69%,inactive,
CC1CCCC1N1CCC(NC(=O)c2ccc3ncsc3c2)CC1 (stereo not drawn),65%,inactive,
O=C(NCC1=CC2CCN1CC2)c1ccc(Cl)cc1,50%,inactive,
CCCC#CCN1CC[C@H](NC(=O)c2ccc3ncsc3c2)C1,81%,inactive,
CN(C)CCNC(=O)c1ccc(Cl)cc1,68%,,
CC(C)N1CCN(C(=O)c2ccc3c(c2)OCCO3)CC1,81%,,
CC1CCCC1N1CC[C@H](NC(=O)c2ccc(Cl)cc2)C1 (stereo partly drawn),33%,,
CCC#CCN1CCC[C@@H]1CNC(=O)Oc1ccc(Br)cc1,72%,,
O=C(NCC1=CC2CCN1CC2)Oc1ccc(Br)cc1,100%,inactive,
O=C(NCC1=CC2CCN1CC2)c1ccccc1,35%,inactive,
CCN1CC[C@H](NC(=O)c2ccc3ncsc3c2)C1,139%,inactive,
CC(C)N1CCN(C(=O)C2COc3ccccc3O2)CC1 (stereo not drawn),90%,,
CN(C)CCNC(=O)C1COc2ccccc2O1 (stereo not drawn),52%,,

Structure (SMILES),inhibition [1],Activity [2],also measured
CN1CCC2CC1CN(C(=O)Oc1ccc(Br)cc1)C2 (racemic),,,Activity [3]: Active; Activity [4]: Active
CN1CC2CCC1C(CNC(=O)c1ccccc1)C2 (racemic; form 2),54%,inactive,
O=C(NCC1CC2CCN1CC2)c1ccccc1 (racemic),53%,,
O=C(c1ccc2c(c1)OCCO2)N1CCCN2CCC[C@@H]2C1,40%,inactive,
CCN1CCC[C@@H]1CNC(=O)c1ccc2ncsc2c1,53%,inactive,
CCN1CCC[C@@H]1CNC(=O)c1ccc(Cl)cc1,42%,inactive,
CCC#CCN1CCC[C@H]1CNC(=O)c1ccc2ncsc2c1,88%,inactive,IC50 [5]: 45 µM
O=C(Oc1ccc(Br)cc1)N1CCCN2CCC[C@H]2C1,62%,,
O=C(N[C@H]1CCN(Cc2ccccc2)C1)c1ccc2ncsc2c1,94%,inactive,
CCC#CCN1CCC[C@@H]1CNC(=O)c1ccc2ncsc2c1,13%,,IC50 [5]: 40 µM
O=C(NCC12CCCN1CCC2)c1ccc2c(c1)OCCO2,33%,,
O=C(Oc1ccc(Br)cc1)N1CCN2CCC1CC2,,,Activity [6]: Active
CC(C)N1CCN(C(=O)c2ccc(Cl)cc2)CC1,84%,,
O=C(NCC12CCCN1CCC2)C1COc2ccccc2O1 (stereo not drawn),29%,,
CC1CCCC1N1CC[C@H](NC(=O)c2ccc3ncsc3c2)C1 (stereo partly drawn),20%,,IC50 [5]: 5 µM
C[C@H]1CN2CCCC[C@@H]2CN1C(=O)c1ccc2c(c1)OCCO2,75%,,
CCCN1CCC[C@@H]1CNC(=O)c1ccc(F)cc1,22%,inactive,
CC(C)N1CCCCN(C(=O)c2ccc(Cl)cc2)CC1,35%,,
CN1CC2CCC1C(CNC(=O)c1ccc(Br)cc1)C2 (racemic; form 2),66%,inactive,
O=C(c1ccc2c(c1)OCCO2)N1CCCN2CCC[C@H]2C1,56%,,
O=C(c1ccc2ncsc2c1)N1CCCN2CCC[C@H]2C1,53%,,

Structure (SMILES),inhibition [1],Activity [2],also measured
CCC#CCN1CCC[C@H]1COC(=O)c1ccc2ncsc2c1,60%,inactive,
O=C(N[C@@H]1CCCC[C@H]1N1CCCCC1)Oc1ccc(Br)cc1 (racemic),34%,,IC50 [5]: 10 µM
O=C(NC[C@H]1CCCN1C1CCCCC1)c1ccc2ncsc2c1,71%,inactive,
CCC#CCN1CCC[C@@H]1CNC(=O)c1ccc2c(c1)OCCO2,96%,,
O=C(c1ccc(Br)cc1)N1CCCN2CCC[C@@H]2C1,40%,inactive,
CC(C)N1CCC[C@@H]1CNC(=O)Oc1ccc(Br)cc1,27%,inactive,
CCC#CCN1CCC[C@@H]1CNC(=O)c1ccc(Cl)cc1,21%,,
CN1CC2CCC1C(CNC(=O)c1ccc3c(c1)OCCO3)C2 (racemic; form 1),81%,,
CN1CC2CCC1C(CNC(=O)c1ccc(F)cc1)C2 (racemic; form 1),52%,,
O=C(NCC1CC2CCN1CC2)c1ccc(F)cc1 (racemic),84%,,Activity [7]: Active; Activity [4]: Active
O=C(C1COc2ccccc2O1)N1CCCN2CCC[C@H]2C1 (stereo partly drawn),54%,,
O=C(NCC1CC2CCN1CC2)c1ccc2c(c1)OCCO2 (racemic),79%,,
CC(C)N1CCN(C(=O)Oc2ccc(Br)cc2)CC1,82%,,
C[C@H]1CN2CCCC[C@@H]2CN1C(=O)c1ccc2ncsc2c1 (racemic),61%,,
O=C(NCC12CCCN1CCC2)c1ccc2ncsc2c1,34%,,
O=C(NCC12CCCN1CCC2)c1ccc(Cl)cc1,32%,,Activity [3]: Active; Activity [4]: Active
CN1CC2CCC1C(CNC(=O)c1ccc3c(c1)OCCO3)C2 (racemic; form 2),77%,inactive,
CN1CC2CCC1C(CNC(=O)c1ccc(Br)cc1)C2 (racemic; form 1),71%,,
CC(C)N1CCCN(C(=O)c2ccc3c(c2)OCCO3)CC1,,inactive,
O=C(c1ccccc1)N1CCCN2CCC[C@@H]2C1,55%,inactive,
CC(C)N1CCCCN(C(=O)c2ccc3c(c2)OCCO3)CC1,25%,,IC50 [5]: 6.9 µM

Structure (SMILES),inhibition [1],Activity [2],also measured
O=C(N[C@H]1CCN(C2CCCCC2)C1)c1ccc2ncsc2c1,56%,inactive,
C[C@H]1CN2CCCC[C@@H]2CN1C(=O)c1ccc(Cl)cc1,65%,,
CN1CC2CCC1C(CNC(=O)c1ccccc1)C2 (racemic; form 1),68%,,
O=C(Oc1ccc(Br)cc1)N1CCCN2CCC[C@@H]2C1,36%,inactive,
O=C(N[C@@H]1CCN(Cc2ccccc2)C1)c1ccc2ncsc2c1,59%,,
CC(C)N1CCN(C(=O)c2ccc3ncsc3c2)CC1,85%,,
CN(C)CCNC(=O)c1ccc2c(c1)OCCO2,87%,,
O=C(NCC1=CC2CCN1CC2)c1ccc(Br)cc1,30%,inactive,
O=C(NCC12CCCN1CCC2)c1ccccc1,26%,,Activity [3]: Active; Activity [4]: Active
O=C(c1ccc(F)cc1)N1CCCN2CCC[C@@H]2C1,58%,inactive,
Cc1ccc(C(=O)NCC23CCCN2CCC3)cc1,25%,,
CN(C)CCNC(=O)c1ccc2ncsc2c1,94%,,
CCC#CCN1CCC[C@@H]1CNC(=O)C1COc2ccccc2O1 (stereo partly drawn),74%,,
CCN1CCC[C@@H]1CNC(=O)Oc1ccc(Br)cc1,53%,inactive,
CC(C)N1CCCCN(C(=O)c2ccc3ncsc3c2)CC1,40%,,
CN1CC2CCC1C(CNC(=O)c1ccc(Cl)cc1)C2 (racemic; form 1),60%,,
O=C(NCC1=CC2CCN1CC2)c1ccc(F)cc1,36%,inactive,
CC(C)N1CCCCN(C(=O)C2COc3ccccc3O2)CC1 (stereo not drawn),37%,,
